In US7179943B2, “Bicyclic derivatives that modulate voltage-gated potassium channels and methods of use thereof” (Wyeth, priority 2004, dated 2007):
Structures can show the parent of a compound that is named as a salt.

Test system: not given
Assay: not given
Conditions: not given

SMILES | melting point
O=C(Nc1ccc(C(F)(F)F)cc1)C1C(=O)C2CCC(C2)C1=O (stereo not shown) (as salt: sodium) [Example 26, N-[4-(trifluoromethyl)phenyl]-2,4-dioxobicyclo[3.2.1]octane-3-carboxamide] | 250 to 260 °C
CC1(C)C2CC1C(=O)C(C(=O)Nc1ccc(C(F)(F)F)cc1)C2=O (stereo not shown) (as salt: sodium) [Example 28, 6,6-Dimethyl-2,4-dioxo-N-[4-(trifluoromethyl)phenyl]bicyclo[3.1.1]heptane-3-carboxamide] | > 230 °C
CC1(C)C2CC[C@]1(C)C(=O)C(C(=O)Nc1cc(C(F)(F)F)cc(C(F)(F)F)c1)C2=O (stereo partly drawn) [Example 1, (1S)-N-[3,5-bis(trifluoromethyl)phenyl]-1,8,8-trimethyl-2,4-dioxobicyclo[3.2.1] octane-3-carboxamide] | 68 to 72 °C
CC1(C)C2CC[C@]1(C)C(=O)C(C(=O)Nc1cc(Cl)cc(Cl)c1)C2=O (stereo partly drawn) [Example 3, (1S)-N-(3,5-dichlorophenyl)-1,8,8-trimethyl-2,4-dioxobicyclo[3.2.1]octane-3-carboxamide] | 112 to 114 °C
CC1(C)C2CC[C@]1(C)C(=O)C(C(=O)Nc1ccc(Cl)c(Cl)c1)C2=O (stereo partly drawn) [Example 4, (1S)-N-(3,4-dichlorophenyl)-1,8,8-trimethyl-2,4-dioxobicyclo[3.2.1]octane-3-carboxamide] | 88 to 90 °C
CC1(C)C2CC[C@]1(C)C(=O)C(C(=O)Nc1cccc([N+](=O)[O-])c1)C2=O (stereo partly drawn) [Example 5, (1S)-N-(3-nitrophenyl)-1,8,8-trimethyl-2,4-dioxobicyclo[3.2.1]octane-3-carboxamide] | 100 to 102 °C
CC1(C)C2CC[C@]1(C)C(=O)C(C(=O)Nc1ccc([N+](=O)[O-])cc1)C2=O (stereo partly drawn) [Example 6, (1S)-N-(4-nitrophenyl)-1,8,8-trimethyl-2,4-dioxobicyclo[3.2.1]octane-3-carboxamide] | 170 to 172 °C
CC1(C)C2CC[C@]1(C)C(=O)C(C(=O)Nc1ccc(Cl)c(C(F)(F)F)c1)C2=O (stereo partly drawn) [Example 7, (1S)-N-[4-chloro-3-(trifluoromethyl)phenyl]-1,8,8-trimethyl-2,4-dioxobicyclo [3.2.1]octane-3-carboxamide] | 118 to 120 °C
CC1(C)C2CC[C@]1(C)C(=O)C(C(=O)Nc1ccc(C(F)(F)F)cc1)C2=O (stereo partly drawn) [Example 8, (1S)-N-[4-(trifluoromethyl)phenyl]-1,8,8-trimethyl-2,4-dioxobicyclo[3.2.1] octane-3-carboxamide] | 81 to 83 °C
CN(C)c1ccc(NC(=O)C2C(=O)C3CC[C@](C)(C2=O)C3(C)C)cc1 (stereo partly drawn) [Example 9, (1S)-N-[4-(dimethylamino)phenyl]-1,8,8-trimethyl-2,4-dioxobicyclo[3.2.1] octane-3-carboxamide] | 93 to 95 °C
Cc1ccc(NC(=O)C2C(=O)C3CC[C@](C)(C2=O)C3(C)C)cc1 (stereo partly drawn) [Example 11, (1S)-N-[4-methylphenyl]-1,8,8-trimethyl-2,4-dioxobicyclo[3.2.1]octane-3-carboxamide] | 80 to 82 °C
CC1(C)C2CC[C@@]1(C)C(=O)C(C(=O)Nc1ccc(Cl)c(Cl)c1)C2=O (stereo partly drawn) [Example 14, (1R)-N-(3,4-dichlorophenyl)-1,8,8-trimethyl-2,4-dioxobicyclo[3.2.1]octane-3-carboxamide] | 89 to 91 °C
CC1(C)C2CC[C@@]1(C)C(=O)C(C(=O)Nc1cccc(C(F)(F)F)c1)C2=O (stereo partly drawn) [Example 17, (1R)-N-[3-(trifluoromethyl)phenyl]-1,8,8-trimethyl-2,4-dioxobicyclo[3.2.1] octane-3-carboxamide] | 66 to 68 °C

More lines, now with the values ahead:

melting point | SMILES
> 230 °C | CC1(C)C2CC1C(=O)C(C(=O)Nc1cccc(C(F)(F)F)c1)C2=O (stereo not shown) (as salt: sodium) [Example 29, 6,6-Dimethyl-2,4-dioxo-N-[3-(trifluoromethyl)phenyl]bicyclo[3.1.1]heptane-3-carboxamide]
> 230 °C | CC1(C)C2CC1C(=O)C(C(=O)Nc1ccc(F)c(Cl)c1)C2=O (stereo not shown) (as salt: sodium) [Example 30, 6,6-Dimethyl-2,4-dioxo-N-(3-chloro-4-fluorophenyl)bicyclo[3.1.1]heptane-3-carboxamide]
> 230 °C | CC1(C)C2CC1C(=O)C(C(=O)Nc1ccc(F)c(C(F)(F)F)c1)C2=O (stereo not shown) (as salt: sodium) [Example 31, 6,6-Dimethyl-2,4-dioxo-N-[4-fluoro-3 (trifluoromethyl)phenyl]bicyclo[3.1.1]heptane-3-carboxamide]
> 230 °C | CC1(C)C2CC1C(=O)C(C(=O)Nc1ccc(Cl)c(Cl)c1)C2=O (stereo not shown) (as salt: sodium) [Example 32, 6,6-Dimethyl-2,4-dioxo-N-(3,4-dichlorophenyl)bicyclo[3.1.1]heptane-3-carboxamide]
> 230 °C | CC1(C)C2CC1C(=O)C(C(=O)Nc1cc(Cl)cc(Cl)c1)C2=O (stereo not shown) (as salt: sodium) [Example 33, 6,6-Dimethyl-2,4-dioxo-N-(3,5-dichlorophenyl)bicyclo[3.1.1]heptane-3-carboxamide]
> 230 °C | CC1(C)C2CC1C(=O)C(C(=O)Nc1ccc(F)cc1)C2=O (stereo not shown) (as salt: sodium) [Example 34, 6,6-Dimethyl-2,4-dioxo-N-(4-fluorophenyl)bicyclo[3.1.1]heptane-3-carboxamide]
> 230 °C | CC1(C)C2CC1C(=O)C(C(=O)Nc1cccc(Cl)c1)C2=O (stereo not shown) (as salt: sodium) [Example 35, 6,6-Dimethyl-2,4-dioxo-N-(3-chlorophenyl)bicyclo[3.1.1]heptane-3-carboxamide]
> 230 °C | CC1(C)C2CC1C(=O)C(C(=O)Nc1ccc(Cl)cc1)C2=O (stereo not shown) (as salt: sodium) [Example 36, 6,6-Dimethyl-2,4-dioxo-N-(4-chlorophenyl)bicyclo[3.1.1]heptane-3-carboxamide]
286 to 288 °C | O=C(Nc1cc(C(F)(F)F)cc(C(F)(F)F)c1)C1C(=O)C2CCC(CC2)C1=O (stereo not shown) (as salt: sodium) [Example 37, N-[3,5-bis(trifluoromethyl)phenyl]-2,4-dioxobicyclo[3.2.2]nonane-3-carboxamide]

Molecular target: T1, human Kv1.1/Kvβ1 potassium ion channel complex (Homo sapiens, UniProt Q09470)
T1 construct: expressed in transfected cells; host or cells: Xenopus oocytes injected with cRNA
Assay: Xenopus oocytes current assay (inhibition of inactivation, voltage clamp)
Type: cell-based
Conditions: Xenopus oocytes expressing hKv1.1/hKvβ1, relative to control bath solution
Procedure: The compounds of formula I were examined for their ability to inhibit the inactivation of the human Kv1.1/Kvβ1 potassium ion channel complex in vitro using electrophysiological current recordings on inactivating Kv1.1/Kvβ1 channels expressed in Xenopus oocytes. Xenopus oocytes were harvested from frogs under general anesthesia using aseptic techniques. Oocytes were treated with 2 mg/ml collagenase for 1–1.5 hr, defolliculated, and injected with 40 nL cRNA (a mixture of hky1.1 and hKvβ1) produced using standard molecular biological techniques (Sambrook, et al., 1989, Molecular Cloning: A Laboratory Manual). The concentration of hKv1.1/hKvp1 cRNA varies, but was generally about 50 ng/μL hKv1.1 and […] hKβ1.
Currents were recorded using standard voltage clamp amplifiers at room temperature. Recordings were performed in the bath solution “ND-96” containing 96 mM NaCl, 2 mM KCl, 1 mm CaCl2, 1 mM MgCl2, 10 mM HEPES and […] Gentamycin (pH=7.6). The pipette (electrode) solution generally consisted of […]. Electrodes were made from WPI TW150F-4 borosilicate glass (or equivalent) and typically had resistances of 0.5–1.5 Mohms. The standard current-voltage (IV) pulse protocol consisted of voltage steps from −60 mV to +50 mV, in 10 mV increments for 200 ms, at a frequency of one IV set per 2 minutes. Data were digitized and analyzed by standard software packages.
Solutions of the test compounds consisting of test compounds dissolved in bath solution were applied by bath perfusion using gravity or pump-driven flow. A minimum of 2 mL (10 times the bath volume) over 3 minutes were flowed for each compound concentration tested. Data were averaged across at least 3 cells tested for each concentration.
Test compounds were examined for their ability to inhibit the inactivation of the steady state portion of the IV curve.

T1 sequence (Q09470 whole entry, one chain of several): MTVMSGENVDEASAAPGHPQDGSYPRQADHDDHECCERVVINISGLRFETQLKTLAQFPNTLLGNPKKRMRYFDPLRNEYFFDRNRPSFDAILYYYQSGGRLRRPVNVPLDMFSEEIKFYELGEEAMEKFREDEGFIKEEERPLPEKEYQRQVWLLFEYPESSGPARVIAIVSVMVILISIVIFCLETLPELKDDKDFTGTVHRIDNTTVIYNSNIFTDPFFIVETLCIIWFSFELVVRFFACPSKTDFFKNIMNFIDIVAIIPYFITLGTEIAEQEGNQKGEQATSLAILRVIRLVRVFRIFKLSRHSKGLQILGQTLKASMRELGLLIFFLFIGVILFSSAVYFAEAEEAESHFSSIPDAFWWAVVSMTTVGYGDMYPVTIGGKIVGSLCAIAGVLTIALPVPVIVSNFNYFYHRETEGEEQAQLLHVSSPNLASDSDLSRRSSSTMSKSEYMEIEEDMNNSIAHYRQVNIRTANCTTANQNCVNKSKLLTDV

Percent Increase in Steady State Current Of human Kv1.1/Kvβ1 @ a concentration of 50 μM | SMILES
28% | O=C(Nc1ccc(Cl)c(Cl)c1)C1C(=O)C2CCC(C2)C1=O (stereo not shown) [Example 24]

Same assay, conditions: Xenopus oocytes expressing hKv1.1/hKvβ1, relative to control bath solution, read-out: Percent Increase in Steady State Current Of human Kv1.1/Kvβ1 @ a concentration of 50 μM

SMILES | activation at 50 µM
CC1(C)C2CC[C@]1(C)C(=O)C(C(=O)Nc1cc(C(F)(F)F)cc(C(F)(F)F)c1)C2=O (stereo partly drawn) [Example 1, (1S)-N-[3,5-bis(trifluoromethyl)phenyl]-1,8,8-trimethyl-2,4-dioxobicyclo[3.2.1] octane-3-carboxamide] | 16%
CC1(C)C2CC[C@]1(C)C(=O)C(C(=O)Nc1ccc(Cl)c(Cl)c1)C2=O (stereo partly drawn) [Example 4, (1S)-N-(3,4-dichlorophenyl)-1,8,8-trimethyl-2,4-dioxobicyclo[3.2.1]octane-3-carboxamide] | 11%
CC1(C)C2CC[C@]1(C)C(=O)C(C(=O)Nc1ccc(C(F)(F)F)cc1)C2=O (stereo partly drawn) [Example 8, (1S)-N-[4-(trifluoromethyl)phenyl]-1,8,8-trimethyl-2,4-dioxobicyclo[3.2.1] octane-3-carboxamide] | 53%
CN(C)c1ccc(NC(=O)C2C(=O)C3CC[C@](C)(C2=O)C3(C)C)cc1 (stereo partly drawn) [Example 9, (1S)-N-[4-(dimethylamino)phenyl]-1,8,8-trimethyl-2,4-dioxobicyclo[3.2.1] octane-3-carboxamide] | 27%
CC1(C)C2CC1C(=O)C(C(=O)Nc1ccc(C(F)(F)F)cc1)C2=O (stereo not shown) [Example 28, 6,6-Dimethyl-2,4-dioxo-N-[4-(trifluoromethyl)phenyl]bicyclo[3.1.1]heptane-3-carboxamide] | 190%

The next lines start with the values.

activation at 50 µM | SMILES
67% | CC1(C)C2CC1C(=O)C(C(=O)Nc1cccc(C(F)(F)F)c1)C2=O (stereo not shown) [Example 29, 6,6-Dimethyl-2,4-dioxo-N-[3-(trifluoromethyl)phenyl]bicyclo[3.1.1]heptane-3-carboxamide]
124% | CC1(C)C2CC1C(=O)C(C(=O)Nc1ccc(F)c(Cl)c1)C2=O (stereo not shown) [Example 30, 6,6-Dimethyl-2,4-dioxo-N-(3-chloro-4-fluorophenyl)bicyclo[3.1.1]heptane-3-carboxamide]
282% | CC1(C)C2CC1C(=O)C(C(=O)Nc1ccc(F)c(C(F)(F)F)c1)C2=O (stereo not shown) [Example 31, 6,6-Dimethyl-2,4-dioxo-N-[4-fluoro-3 (trifluoromethyl)phenyl]bicyclo[3.1.1]heptane-3-carboxamide]
311% | CC1(C)C2CC1C(=O)C(C(=O)Nc1ccc(Cl)c(Cl)c1)C2=O (stereo not shown) [Example 32, 6,6-Dimethyl-2,4-dioxo-N-(3,4-dichlorophenyl)bicyclo[3.1.1]heptane-3-carboxamide]
326% | CC1(C)C2CC1C(=O)C(C(=O)Nc1cc(Cl)cc(Cl)c1)C2=O (stereo not shown) [Example 33, 6,6-Dimethyl-2,4-dioxo-N-(3,5-dichlorophenyl)bicyclo[3.1.1]heptane-3-carboxamide]
94% | CC1(C)C2CC1C(=O)C(C(=O)Nc1ccc(F)cc1)C2=O (stereo not shown) [Example 34, 6,6-Dimethyl-2,4-dioxo-N-(4-fluorophenyl)bicyclo[3.1.1]heptane-3-carboxamide]
107% | CC1(C)C2CC1C(=O)C(C(=O)Nc1cccc(Cl)c1)C2=O (stereo not shown) [Example 35, 6,6-Dimethyl-2,4-dioxo-N-(3-chlorophenyl)bicyclo[3.1.1]heptane-3-carboxamide]
125% | CC1(C)C2CC1C(=O)C(C(=O)Nc1ccc(Cl)cc1)C2=O (stereo not shown) [Example 36, 6,6-Dimethyl-2,4-dioxo-N-(4-chlorophenyl)bicyclo[3.1.1]heptane-3-carboxamide]
68% | O=C(Nc1cc(C(F)(F)F)cc(C(F)(F)F)c1)C1C(=O)C2CCC(CC2)C1=O (stereo not shown) [Example 37, N-[3,5-bis(trifluoromethyl)phenyl]-2,4-dioxobicyclo[3.2.2]nonane-3-carboxamide]
